Laboratory results: patent US10807932B2, “Benzosuberene analogues and related compounds with activity as anticancer agents” (Baylor University, priority 2018, dated 2020)
Entries after “also recorded” stand apart in the source; their conditions may differ.

Tests used:
[1] = system: NCI-H460 (lung) cancer cell line; assay: Sulforhodamine B (SRB) growth inhibition assay, NCI-H460; type: cell-based, human; settings: 48 h treatment
Description: (§1) Cell Lines and Sulforhodamine B (SRB) Assay.
(§2) The sulforhodamine B (SRB) assay was used to assess growth inhibition of human cancer cells, as previously described. DU-145, SK-OV-3, and NCI-H460 cancer cell lines (obtained from ATCC) were maintained in T75 flasks (Corning) using high glucose DMEM supplemented with 10% fetal bovine serum (Gibco)/1% gentamicin sulfate for a maximum of 15 passages. For these experiments, cells were trypsinized, counted, and plated at 7000-8000 cells/well into 96-well plates (Corning) and incubated for 24 h at 37° C. in a humidified incubator in a 5% CO2 atmosphere. Compounds to be tested were dissolved in DMSO to generate a 10 mg/mL stock solution, and serial dilutions added in media to the plates. Doxorubicin (Sigma-Aldrich) and paclitaxel (Tokyo Chemical) were used as positive controls. After a 48 h treatment, the cells were fixed with trichloroacetic acid (10% final concentration), washed, dried, stained with SRB dye, washed to remove excess dye, and dried. SRB dye was solubilized, and absorbances were measured at wavelength 540 nm and normalized to values at wavelength 630 nm using an automated Biotek plate reader.

[2] = system: SK-OV-3 (ovarian) cancer cell line; assay: Sulforhodamine B (SRB) growth inhibition assay, SK-OV-3; type: cell-based, human; settings: 48 h treatment
Description: as §1, §2

[3] = target: T1, purified bovine brain tubulin (Bos taurus, UniProt P81947+Q6B856); assay: Inhibition of tubulin polymerization (turbidimetric, cell-free); type: biochemical; settings: for IC50: 10 μM tubulin, extent of polymerization after 20 min at 30° C., read-out: Inhibition of tubulin polymerization IC50 (μM) ± SD; for inhibition of tubulin polymerization (in words): cell-free assay
T1 construct: purified bovine brain tubulin; from tissue; host or cells: bovine brain
T1 sequence (Q6B856 whole entry): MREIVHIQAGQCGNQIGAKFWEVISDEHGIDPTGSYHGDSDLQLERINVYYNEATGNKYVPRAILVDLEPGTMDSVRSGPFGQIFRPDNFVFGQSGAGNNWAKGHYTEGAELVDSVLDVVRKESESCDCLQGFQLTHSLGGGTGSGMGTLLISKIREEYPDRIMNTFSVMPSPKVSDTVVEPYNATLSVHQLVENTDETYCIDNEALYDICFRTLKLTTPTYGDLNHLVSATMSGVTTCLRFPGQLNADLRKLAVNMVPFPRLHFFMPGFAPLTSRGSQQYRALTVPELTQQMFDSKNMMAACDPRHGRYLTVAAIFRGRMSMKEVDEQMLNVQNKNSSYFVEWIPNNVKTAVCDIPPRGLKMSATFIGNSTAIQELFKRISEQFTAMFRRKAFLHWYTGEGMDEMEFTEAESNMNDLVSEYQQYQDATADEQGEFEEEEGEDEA
T1 sequence (P81947 whole entry): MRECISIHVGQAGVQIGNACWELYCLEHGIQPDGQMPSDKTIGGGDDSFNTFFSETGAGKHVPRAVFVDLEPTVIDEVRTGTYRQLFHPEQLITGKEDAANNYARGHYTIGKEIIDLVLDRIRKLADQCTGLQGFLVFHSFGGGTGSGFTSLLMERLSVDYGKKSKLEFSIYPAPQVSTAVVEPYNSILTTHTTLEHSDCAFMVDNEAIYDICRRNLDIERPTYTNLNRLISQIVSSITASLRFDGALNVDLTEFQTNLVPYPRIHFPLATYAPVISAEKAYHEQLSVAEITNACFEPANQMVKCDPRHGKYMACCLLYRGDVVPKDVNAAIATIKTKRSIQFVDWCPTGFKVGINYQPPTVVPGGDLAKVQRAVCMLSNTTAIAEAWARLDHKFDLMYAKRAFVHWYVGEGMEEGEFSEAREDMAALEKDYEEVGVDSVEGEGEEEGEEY
Protocol: Inhibition of Tubulin Polymerization.
Tubulin polymerization was evaluated in 0.25 mL reaction mixtures (final volume) containing 1 mg/mL (10 μM) purified bovine brain tubulin, 0.8 M monosodium glutamate (pH 6.6), 4% (v/v) dimethyl sulfoxide, 0.4 mM GTP, and different compound concentrations. All components except GTP were preincubated for 15 min at 30° C. in 0.24 mL. The assay mixtures were cooled to 0° C., and 10 μL of 0.01 M GTP was added to each sample. Reaction mixtures were transferred to cuvettes held at 0° C. in Beckman DU-7400 and DU-7500 spectrophotometers equipped with electronic temperature controllers. The temperature was increased to 30° C., over about 30 s, and polymerization was followed turbidimetrically at 350 nm for 20 min.

[4] = system: DU-145 (prostate) cancer cell line; assay: Sulforhodamine B (SRB) growth inhibition assay, DU-145; type: cell-based, human; settings: 48 h treatment
Description: as §1, §2

[5] = 30 mg/kg, rats, shown previously; cited from earlier work
[6] = system: PC3-DAB2IP-luc human prostate tumor xenograft; assay: In vivo vascular disruption by dynamic bioluminescence imaging (BLI); parameters: species or system Male Copenhagen rats; settings: for vascular response by BLI light emission (in words): phosphate
Description: In Vivo Vascular Disruption.
The human prostate cancer cell line (PC3) was modified by knock down of a tumor suppressor protein PC3-DAB2IP and further modified by transfection with a firefly luciferase reporter, as described in detail previously. Male Copenhagen rats (originally from Charles River and bred at UT Southwestern) were inoculated subcutaneously with 5×10^5 PC3-DAB2IP-luc cells mixed with 30% Matrigel® in the right thigh. These rats were approximately 6 weeks old and weighed between 100-120 g on date of implantation. Tumors were allowed to grow to a diameter of at least 1 cm before treatment commenced. Three rats were treated with VDA prodrug 89 (25 mg/mL in saline) administered IP. Rat 1 received 10 mg/kg followed by 40 mg/kg 24 h later and CA4P (30 mg/kg at 20 mg/mL in saline) was administered IP as a control 4 days later. Rat 2 received a single dose of 40 mg/kg of VDA prodrug 89, and rat 3 received 80 mg/kg of 89. Bioluminescence imaging (BLI) was performed before treatment (baseline), and at 4 and 24 h after treatment using an IVIS Spectrum® (Perkin-Elmer). Briefly, anesthetized rats (breathing oxygen with 3% isoflurane, Henry Schein Inc.) were injected subcutaneously in the foreback neck region with 120 mg/kg D-luciferin sodium salt (Gold Biotechnology, St. Louis, Mo.) and imaged over a time course of about 30 min. Fresh luciferin was administered at each time point. The resulting light intensity time curves were analyzed using Living Image® Software and light emission measured for a region of interest encompassing the tumor. All animal procedures were carried out in accordance with the Guide for the Care and Use of Laboratory Animals as adopted and promulgated by the U.S. National Institutes of Health as well as the Institutional Animal Care and Use Committee approved protocols (APN 2017-102168) at the University of Texas Southwestern Medical Center.
Ultimately, VDAs will be used in vivo, and thus it is crucial to understand both efficacy of vascular disruption and potential off target toxicity in vivo. As a preliminary investigation, the extent of vascular damage was assessed in a human prostate tumor line in rats treated with the water-soluble prodrug salt 89 compared to CA4P as control. Many imaging methods have been developed to assess vascular disruption non-invasively in vivo. Dynamic bioluminescence imaging (BLI) was favored for initial validation of VDA activity since it provides a fast, non-invasive and easy method and allows comparison of repeat or sequential investigations. BLI does require the use of cells transfected to express luciferase (luc), but these are commonly available and we have used this approach extensively as have others. The human prostate cancer PC3 line was used, in which the tumor suppressor protein DAB2IP had been knocked down and luciferase introduced. BLI requires administration of luciferin substrate, which readily crosses membranes and is carried throughout the vasculature. The measurement of light emission dynamics is related to vascular delivery of the luciferin substrate, and thus it provides a measure of vascular patency. Disruption of tumor vasculature blocks delivery of the substrate and consequently results in a quantifiable decrease in bioluminescent signal.

[7] = system: tubulin; assay: Colchicine binding assay (inhibition of [3H]colchicine binding to tubulin); settings: 1.0 μM tubulin, 5.0 μM [3H]colchicine
Protocol: Colchicine Binding Assay.
Inhibition of [^3H]colchicine binding to tubulin was measured in 0.1 mL reaction mixtures, each containing 1.0 μM tubulin, 5.0 μM [^3H]colchicine (Perkin-Elmer), 5% (v/v) dimethyl sulfoxide, […], and components that stabilize the colchicine binding activity of tubulin (1.0 M monosodium glutamate [adjusted to pH 6.6 with HCl in a 2.0 M stock solution], 0.5 mg/mL bovine serum albumin, 0.1 M glucose-1-phosphate, 1.0 mM MgCl2, and 1.0 mM GTP). […] Reactions were stopped with 2.0 mL of ice-cold water, with the reaction mixtures being placed on ice. Each diluted sample was poured onto a stack of two DEAE-cellulose filters (GE Biomedical), followed by 3 successive 2 mL aliquots of ice-cold water. A reduced vacuum was used to remove excess water from the filters, which were washed three times with 2 mL water and placed into vials containing 5 mL of Biosafe II scintillation cocktail. Samples were counted 18 h later in a Beckman scintillation counter. Samples with inhibitors were compared to samples with no inhibitor, and percent inhibition was determined, correcting all values for the amount of radiolabel bound to the filters in the absence of tubulin.

Structure (SMILES) | GI50 [1] | GI50 [2] | IC50 [3] | GI50 [4] | vascular shutdown (in words) [5] | vascular response by BLI (in words) ([6]; 30 mg/kg IP, given 4 days after 89 to the same rat) | GI50 ([1]; Homo sapiens, NCI-H460) | GI50 ([2]; Homo sapiens, SK-OV-3) | inhibition of tubulin polymerization (in words) [3] | % Inhibition of colchicine binding ± SD ([7]; compound at 5 μM) | GI50 ([4]; Homo sapiens, DU-145) | vascular response by BLI light emission (in words) ([6]; 10 mg/kg IP, rat) | vascular response by BLI light emission (in words) ([6]; 40 mg/kg IP, 4 h, rat) | recovery of BLI signal (in words) ([6]; 40 mg/kg IP, 24 h, rat) | appearance of the rats ([6]; 40 mg/kg IP, at 48 h) | tolerability ([6]; 80 mg/kg IP, rat) | vascular disruption (in words) ([6]; 80 mg/kg IP, rat) | % Inhibition of colchicine binding ± SD ([7]; compound at 0.5 μM)
COc1ccc(/C=C\c2cc(OC)c(OC)c(OC)c2)cc1OP(=O)(O)O [CA4P, combretastatin A-4 phosphate, reference compound] | 0.00194 µM | 0.00119 µM | > 40 µM | 0.00323 µM | extensive vascular shutdown | very similar effect | – | – | – | – | – | – | – | – | – | – | – | –
COc1cc(C2=CC=CCc3c2ccc(OC)c3OP(=O)([O-])[O-])cc(OC)c1OC.[Na+].[Na+] [Compound 89, Sodium 3-methoxy-9-(3,4,5-trimethoxyphenyl)-5H-benzo[7]annulen-4-yl phosphate] | – | – | 16 ± 0.7 µM | – | – | – | 0.0291 µM | 0.0153 µM | inactive | 45 ± 2 (5 μM) % | 0.0239 µM | no vascular perturbation; also recorded: minimal change in light emission | substantial vascular shutdown; also recorded: substantially diminished light emission; also recorded: revealed vascular disruption | substantial recovery by 24 h | appeared healthy | well tolerated | did not show additional vascular disruption | –
COc1ccc2c(c1O)CC=CC=C2c1cc(OC)c(OC)c(OC)c1 [Compound 88, 3-Methoxy-9-(3,4,5-trimethoxyphenyl)-5H-benzo[7]annulen-4-ol] | – | – | 0.48 ± 0.08 µM | – | – | – | 0.0581 µM | 0.0069 µM | – | 95 ± 0.8% | 0.0976 µM | – | – | – | – | – | – | 68 ± 1%
COc1ccc2c(c1O)CCCC1=C2c2cc(OC)c(OC)c(OC)c2C1=O [Compound 91, 4-Hydroxy-3,9,10,11-tetramethoxy-6,7-dihydrodibenzo[a,h]azulen-8(5H)-one] | – | – | 4.2 ± 0.2 µM | – | – | – | 0.105 µM | 0.0399 µM | – | 45 ± 4 (5 μM) % | 0.0321 µM | – | – | – | – | – | – | –
COc1cc(C2(O)C=CCCc3c2ccc(OC)c3OC)cc(OC)c1OC (centres unmarked) [Compound 76, 1,2-Dimethoxy-5-(3,4,5-trimethoxyphenyl)-8,9-dihydro-5H-benzo[7]annulen-5-ol] | – | – | > 20 µM | – | – | – | 70.5 µM | 27.2 µM | lack of tubulin activity | 0 (5 μM) % | 26 µM | – | – | – | – | – | – | –
COc1ccc2c(c1O)CCCC(O)C2(O)c1cc(OC)c(OC)c(OC)c1 (centres unmarked) [Compound 35, 2-Methoxy-5-(3,4,5-trimethoxyphenyl)-6,7,8,9-tetrahydro-5H-benzo[7]annulene-1,5,6-triol] | – | – | > 20 µM | – | – | – | 3.86 µM | 3.03 µM | reduced inhibition of tubulin polymerization | 0 (5 μM) % | 4.04 µM | – | – | – | – | – | – | –
